The numbers were not newly measured in patent US20100317677A1, “Methods of Treating a Microbial Infection by Modulating RNase-L Expression and/or Activity” (priority 2007, published 2010), which cites them from elsewhere.

This data set deals with T1, RNase-L (Homo sapiens, UniProt Q05823).
T1 sequence (Q05823 1-741): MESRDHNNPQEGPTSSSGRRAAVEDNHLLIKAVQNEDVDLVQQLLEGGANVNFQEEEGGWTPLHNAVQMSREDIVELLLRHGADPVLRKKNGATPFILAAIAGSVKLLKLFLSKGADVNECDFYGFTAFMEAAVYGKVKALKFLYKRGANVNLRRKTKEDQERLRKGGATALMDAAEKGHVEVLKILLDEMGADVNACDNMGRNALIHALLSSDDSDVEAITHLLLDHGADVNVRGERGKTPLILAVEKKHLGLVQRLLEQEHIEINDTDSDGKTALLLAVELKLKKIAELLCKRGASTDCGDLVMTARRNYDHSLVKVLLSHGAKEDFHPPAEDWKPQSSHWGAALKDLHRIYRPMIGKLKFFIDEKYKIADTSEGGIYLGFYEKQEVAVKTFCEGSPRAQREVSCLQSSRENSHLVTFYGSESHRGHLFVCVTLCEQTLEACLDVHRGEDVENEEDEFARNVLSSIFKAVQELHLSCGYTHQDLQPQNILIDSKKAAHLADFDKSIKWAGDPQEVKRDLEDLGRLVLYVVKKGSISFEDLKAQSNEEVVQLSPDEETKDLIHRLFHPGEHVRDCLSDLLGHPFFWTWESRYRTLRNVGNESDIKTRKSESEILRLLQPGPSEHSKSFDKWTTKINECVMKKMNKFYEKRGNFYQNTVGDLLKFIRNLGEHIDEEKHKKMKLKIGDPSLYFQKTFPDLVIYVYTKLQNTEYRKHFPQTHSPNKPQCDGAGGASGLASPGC
The settings on record: statement in words, cited from Thakur et al. 2007 and other literature.

On to px5′A(2′p5′A)n [2-5A], for which the “Effect on the activity of RNase-L” value was “increases the activity of RNase-L”.
